# Columns and labels:
# [1] = Drug release assay of compound impregnated Smart set HV; type: physicochemical; conditions: Smart set HV loaded; PBS buffer (pH 6.8):acetonitrile (9:1), 32° C., 7 days
# Description: The drug release study with compound 2 and compound 10 were conducted in sample vial containing 1.5 ml of dissolution media i.e., PBS buffer (pH 6.8):acetonitrile (9:1). The sample was kept in incubator rotator at 32° C. at 40 rpm. The release medium was withdrawn at specified interval of time (2 hr, 4 hr, 6 hr, day 1, day 2, day 3, day 4, day 5, day 6, day 7 and replaced by fresh 1.5 ml dissolution medium each time. All the samples were kept at −20° C. till the analysis is done. The measurement of drug release was done by HPLC.
# S. epidermidis S5-2 = experiment: Sequential ZIB (zone of inhibition) assay for PMMA beads; type: cell-based, Staphylococcus epidermidis; conditions: SmartSet HV impregnated beads
# Description: S. epidermidis S5-2 cells were grown in Brain Heart Infusion Agar (BHIA) at 37° C. for 24 h. 100 μl of 0.5 McFarland equal bacterial suspension was spread on BHA plates. Drug loaded beads were placed above these plates. Plates were incubated at 37° C. for 24 h. Next day, zone of inhibition (ZOI) the beads were measured following which the beads were placed on fresh BHA plates with bacterial suspension spread and this experiment was continued up to seven days. The drug release pattern was determined by compiling and analyzing the ZOI data of beads on each ZOI cycle up to seven days.
# E. faecium NCIM 5421 = experiment: MIC by micro broth dilution; type: cell-based; conditions: Enterococcus faecium, NCIM5421, read-out: Minimum inhibitory concentration (MIC)
# In short: (§1)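 CLSI broth microdilution in BHI broth, twofold serial dilutions; inoculum from 0.5 McFarland culture diluted 100-fold. Incubated 37° C for 24 h; MIC read after Alamar blue addition.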
# E. aerogenes M2-1 = experiment: MIC by micro broth dilution; type: cell-based; conditions: Klebsiella aerogenes, M21, read-out: Minimum inhibitory concentration (MIC)
# In short: as §1
# E. coli MTCC 1687 = experiment: MIC by micro broth dilution; type: cell-based; conditions: Escherichia coli, MTCC1687, read-out: Minimum inhibitory concentration (MIC)
# In short: as §1
# P. aeruginosa ATCC 27853 = experiment: MIC by micro broth dilution; type: cell-based; conditions: Pseudomonas aeruginosa, ATCC27853, read-out: Minimum inhibitory concentration (MIC)
# In short: as §1
# S. aureus ATCC 43300 = experiment: MIC by micro broth dilution; type: cell-based; conditions: Staphylococcus aureus, ATCC43300; S. aureus ATCC 43300; read-out: Minimum inhibitory concentration (MIC)
# In short: as §1
# [2] = system: S. epidermidis ATCC 35984; experiment: MIC by micro broth dilution; type: cell-based; conditions: Staphylococcus epidermidis, ATCC35984, read-out: Minimum inhibitory concentration (MIC)
# In short: as §1
# S. aureus MTCC 6908 = experiment: MIC by micro broth dilution; type: cell-based; conditions: Staphylococcus aureus, MTCC6908, read-out: Minimum inhibitory concentration (MIC)
# In short: as §1
# A. baumannii ATCC 1906 = experiment: MIC by micro broth dilution; type: cell-based; conditions: Acinetobacter baumannii, ATCC1906, read-out: Minimum inhibitory concentration (MIC)
# In short: as §1
# S. aureus CCARM 3505 = experiment: MIC by micro broth dilution; type: cell-based; conditions: Staphylococcus aureus, CCARM3505, read-out: Minimum inhibitory concentration (MIC)
# In short: as §1
# E. aerogenes NCIM 5139 = experiment: MIC by micro broth dilution; type: cell-based; conditions: Klebsiella aerogenes, NCIM5139, read-out: Minimum inhibitory concentration (MIC)
# In short: as §1
# S. epidermidis S12-1 = experiment: MIC by micro broth dilution; type: cell-based; conditions: Staphylococcus epidermidis, S121, read-out: Minimum inhibitory concentration (MIC)
# In short: as §1
# K. pneumonia ATCC 13883 = experiment: MIC by micro broth dilution; type: cell-based; conditions: Klebsiella pneumoniae, ATCC13883; K. pneumonia ATCC 13883; read-out: Minimum inhibitory concentration (MIC)
# In short: as §1
# E. coli BAA 196 = experiment: MIC by micro broth dilution; type: cell-based; conditions: Escherichia coli, BAA196, read-out: Minimum inhibitory concentration (MIC)
# In short: as §1
# [3] = system: S. aureus and S. epidermidis; experiment: Emergence of resistance assay (serial passaging); type: cell-based, S. aureus MTCC 6908 & S. epidermidis S5-2; conditions: upto 28th generation
# Description: The in vitro emergence of resistance assay was performed for the compounds as per methods reported in literatures. The resistance assay for the test compounds was done in the same manner as documented in the MIC assay using micro broth dilution method as per CLSI guidelines. For the second cycle, bacterial culture was collected from the well showing growth, containing the next lowest concentration to the MIC of test compound, and used as inoculum for the next cycle containing the same or higher range of concentrations depending on the MIC in each cycle. The same procedure was repeated in subsequent cycles for 20-30 days. […] The serial passaging was repeated for 20-30 consecutive cycles. The assay was done in duplicates in each cycle.
# An increase in MIC≥8 fold compared to the MIC of the test compound in cycle 1 was considered as a significant development of resistance.
structure (smiles),measurement,setting,value
"Cc1ncc([N+](=O)[O-])n1CCN1CCN(c2cc3c(cc2F)c(=O)c(C(=O)O)c2n3C(C)S2)CC1 (stereo not shown) [Compound 2, 6-Fluoro-1-methyl-7-(4-(2-(2-methyl-5-nitro-1H-imidazol-1-yl)ethyl)piperazin-1-yl)-4-oxo-1H,4H-[1,3]thiazeto[3,2-a]quinoline-3-carboxylic acid]",drug release from bone cement in words,[1],sustained release of active over a period of 7 days
same,Sequential ZOI,S. epidermidis S5-2; Day-1,2.2 cm
same,Sequential ZOI,S. epidermidis S5-2; Day-2,2.1 cm
same,Sequential ZOI,S. epidermidis S5-2; Day-3,1.6 cm
same,Sequential ZOI,S. epidermidis S5-2; Day-4,0.8 cm
same,Sequential ZOI,S. epidermidis S5-2; Day-5,1.6 cm
same,Sequential ZOI,S. epidermidis S5-2; Day-6,1.8 cm
same,Sequential ZOI,S. epidermidis S5-2; Day-7,1.4 cm
same,MIC,E. faecium NCIM 5421,0.25 µg/mL
same,MIC,E. aerogenes M2-1,8 µg/mL
same,MIC,E. coli MTCC 1687,1 µg/mL
same,MIC,P. aeruginosa ATCC 27853,8 µg/mL
same,MIC,S. aureus ATCC 43300,0.13 µg/mL
same,MIC,[2],0.03 µg/mL
same,MIC,S. aureus MTCC 6908,0.53 µg/mL
same,MIC,A. baumannii ATCC 1906,8 µg/mL
same,MIC,S. aureus CCARM 3505,16 µg/mL
same,MIC,E. aerogenes NCIM 5139,4 µg/mL
same,MIC,S. epidermidis S12-1,8 µg/mL
same,MIC,K. pneumonia ATCC 13883,4 µg/mL
same,MIC,E. coli BAA 196,8 µg/mL
same,MIC enhancement,[3],2-4 ×MIC

# — US10570152B2, “Antibacterial therapeutics and prophylactics” (VYOME BIOSCIENCES PVT. LTD., priority 2015, dated 2020)
